Results taken from patent US8546556B2, “Carbocyclic alpha-L-bicyclic nucleic acid analogs” (Isis Pharmaceuticals, Inc, priority 2007, dated 2013).

Test system: snake venom phosphodi-esterase (SVPD)
Conditions: SVPD 0.0005 U/mL, 50 mM Tris-HCl pH 7.5, 8 mM MgCl2, 37° C., oligomer 5 μm; full-length oligomer by IP-HPLC/MS
Method: [drawing 26] • The nuclease stability was determined after treatment with snake venom phosphodi-esterase (SVPD). Each of the test oligomers was incubated with SVPD (0.0005 U/mL) in 50 mM Tris-HCl, pH 7.5, 8 mM MgCl2 at 37° C. to a final concentration of 5 μm in a total volume of 400 μL. At each time point, a 50 μL aliquot and quenching buffer (8 M Urea, 50 mM EDTA) was placed in a 500 μL, microfuge tube. Kinetic time points were taken at 0, 0.5, 1, 1.5, 2, and 4 minutes for 7157; 0, 0.5, 1, 1.5, 2, 2.5, 3 and 5 minutes for 440140. The samples were then cooled on ice and spun in a Microfuge to bring the entire volume to the bottom of the tube. Samples were kept frozen until ready for LC/MS analysis.
For each sample the oligomer and metabolites were separated and analyzed using IP-HPLC/MS techniques. Samples were diluted to a concentration of 1 μM with quenching buffer in a microsampling vial and 50 μL of the sample was injected into the IP-HPLC column (YMC ODS-AQ™ 1.0 mm×150 mm, 3 μm, 120 A°). The loading buffer used was 25 mM TBAA (tributyl ammonium acetate) in 25% acetonitrile. […] The percentages of the full-length oligomers were calculated by integration using Caesar v. 6 software (Senetec Software, New Jersey) and the oligonucleotide half-lives were calculated using GraphPad Prism 4.

TTTTTTTTTTTT [ISIS 7157]
Half Life: 24 s
